{"source": "patent US9556157B2", "about": "“Enhancer of zeste homolog 2 inhibitors” (GlaxoSmithKline Intellectual Property (No.2) Limited, priority 2013, dated 2017)", "key": {"[1]": {"molecular_target": "T1, EZH2 within the PRC2 complex (Homo sapiens (Human), UniProt Q15910)", "T1 sequence (Q15910 whole entry)": "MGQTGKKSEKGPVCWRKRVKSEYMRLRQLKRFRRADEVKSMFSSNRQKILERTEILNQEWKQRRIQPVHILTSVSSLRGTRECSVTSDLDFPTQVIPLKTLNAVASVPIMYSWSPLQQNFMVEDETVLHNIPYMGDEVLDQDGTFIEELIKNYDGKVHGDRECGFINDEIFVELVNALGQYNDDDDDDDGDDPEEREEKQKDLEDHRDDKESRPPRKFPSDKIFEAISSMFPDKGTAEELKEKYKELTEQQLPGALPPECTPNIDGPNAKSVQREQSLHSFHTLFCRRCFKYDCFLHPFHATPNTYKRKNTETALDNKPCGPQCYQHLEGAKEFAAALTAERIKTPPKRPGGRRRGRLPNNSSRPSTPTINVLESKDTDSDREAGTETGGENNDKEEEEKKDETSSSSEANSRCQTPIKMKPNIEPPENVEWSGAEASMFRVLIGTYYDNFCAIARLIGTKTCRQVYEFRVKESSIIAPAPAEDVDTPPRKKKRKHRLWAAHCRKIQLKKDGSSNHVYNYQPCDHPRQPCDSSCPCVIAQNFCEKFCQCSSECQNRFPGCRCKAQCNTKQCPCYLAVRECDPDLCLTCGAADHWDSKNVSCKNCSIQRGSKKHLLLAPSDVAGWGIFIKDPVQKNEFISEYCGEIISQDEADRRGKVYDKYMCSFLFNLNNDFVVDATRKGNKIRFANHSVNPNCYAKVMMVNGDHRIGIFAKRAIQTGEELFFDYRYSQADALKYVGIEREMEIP", "T1 sequence (O75530 whole entry partner)": "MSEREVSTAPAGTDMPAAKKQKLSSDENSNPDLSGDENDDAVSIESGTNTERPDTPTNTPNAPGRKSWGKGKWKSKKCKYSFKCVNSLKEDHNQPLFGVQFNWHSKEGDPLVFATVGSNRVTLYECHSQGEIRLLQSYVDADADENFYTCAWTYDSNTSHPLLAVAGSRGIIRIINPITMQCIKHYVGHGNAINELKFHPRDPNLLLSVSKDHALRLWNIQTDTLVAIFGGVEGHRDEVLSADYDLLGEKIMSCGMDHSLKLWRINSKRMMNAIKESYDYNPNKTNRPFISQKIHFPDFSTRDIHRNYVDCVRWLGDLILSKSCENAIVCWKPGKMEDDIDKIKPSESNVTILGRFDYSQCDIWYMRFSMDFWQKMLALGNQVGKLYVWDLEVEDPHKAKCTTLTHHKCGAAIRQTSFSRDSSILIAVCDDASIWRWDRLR", "T1 sequence (Q15022 whole entry partner)": "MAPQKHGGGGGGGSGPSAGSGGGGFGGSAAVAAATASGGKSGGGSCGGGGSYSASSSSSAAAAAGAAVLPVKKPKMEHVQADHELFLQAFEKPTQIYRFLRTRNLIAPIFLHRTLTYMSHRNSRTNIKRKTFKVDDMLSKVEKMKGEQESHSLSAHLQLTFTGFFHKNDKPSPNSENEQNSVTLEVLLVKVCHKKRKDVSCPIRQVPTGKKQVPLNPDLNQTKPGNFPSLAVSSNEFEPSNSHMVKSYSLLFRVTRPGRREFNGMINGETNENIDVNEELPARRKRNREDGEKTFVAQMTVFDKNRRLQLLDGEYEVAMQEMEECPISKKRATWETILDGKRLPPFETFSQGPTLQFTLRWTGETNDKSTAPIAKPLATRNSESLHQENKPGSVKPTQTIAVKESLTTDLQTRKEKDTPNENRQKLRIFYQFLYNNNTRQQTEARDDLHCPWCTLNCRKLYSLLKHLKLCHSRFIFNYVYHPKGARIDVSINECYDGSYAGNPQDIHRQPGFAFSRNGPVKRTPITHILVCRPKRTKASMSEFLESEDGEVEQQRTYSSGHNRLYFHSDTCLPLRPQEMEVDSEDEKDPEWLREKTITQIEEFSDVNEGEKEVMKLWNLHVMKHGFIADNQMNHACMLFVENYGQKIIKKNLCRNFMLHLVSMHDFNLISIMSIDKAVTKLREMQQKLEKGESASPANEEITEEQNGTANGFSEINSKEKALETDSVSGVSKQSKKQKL", "T1 sequence (Q09028 whole entry partner)": "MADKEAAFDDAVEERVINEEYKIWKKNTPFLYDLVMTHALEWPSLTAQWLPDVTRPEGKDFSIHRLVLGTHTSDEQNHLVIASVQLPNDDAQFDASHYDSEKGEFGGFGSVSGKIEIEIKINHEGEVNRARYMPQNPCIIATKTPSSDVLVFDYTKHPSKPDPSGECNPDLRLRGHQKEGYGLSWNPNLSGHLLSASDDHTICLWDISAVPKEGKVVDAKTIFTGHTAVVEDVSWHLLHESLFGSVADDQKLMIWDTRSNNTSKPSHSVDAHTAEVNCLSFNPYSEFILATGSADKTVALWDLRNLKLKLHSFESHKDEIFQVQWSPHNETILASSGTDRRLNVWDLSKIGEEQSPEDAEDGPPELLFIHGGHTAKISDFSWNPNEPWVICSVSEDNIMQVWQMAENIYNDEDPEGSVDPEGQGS", "T1 sequence (Q6ZN18 whole entry partner)": "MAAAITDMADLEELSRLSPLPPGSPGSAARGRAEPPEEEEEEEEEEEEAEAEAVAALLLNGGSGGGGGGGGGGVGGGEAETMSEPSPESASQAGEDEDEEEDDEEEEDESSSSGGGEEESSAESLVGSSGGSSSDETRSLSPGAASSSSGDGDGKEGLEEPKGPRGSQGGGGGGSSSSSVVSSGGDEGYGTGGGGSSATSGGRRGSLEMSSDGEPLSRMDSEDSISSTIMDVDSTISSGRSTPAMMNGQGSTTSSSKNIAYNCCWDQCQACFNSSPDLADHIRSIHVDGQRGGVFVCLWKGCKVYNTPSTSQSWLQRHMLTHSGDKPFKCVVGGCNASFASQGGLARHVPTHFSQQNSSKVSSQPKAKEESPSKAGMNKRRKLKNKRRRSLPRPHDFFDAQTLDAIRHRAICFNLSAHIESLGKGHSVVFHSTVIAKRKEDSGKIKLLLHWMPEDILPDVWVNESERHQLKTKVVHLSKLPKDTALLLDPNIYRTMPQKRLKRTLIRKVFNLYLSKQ", "assay": "EZH2 methyltransferase SPA, mononucleosome substrate (Assay Protocol 1)", "format": "biochemical", "settings": "mononucleosomes from HeLa cells, 3H-SAM", "method": "Compounds contained herein were evaluated for their ability to inhibit the methyltransferase activity of EZH2 within the PRC2 complex. Human PRC2 complex was prepared by co-expressing each of the 5 member proteins (FLAG-EZH2, EED, SUZ12, RbAp48, AEBP2) in Sf9 cells followed by co-purification. Enzyme activity was measured in a scintillation proximity assay (SPA) where a tritiated methyl group is transferred from 3H-SAM to a lysine residue on Histone H3 of a mononucleosome, purified from HeLa cells. Mononucleosomes were captured on SPA beads and the resulting signal is read on a ViewLux plate reader.\n(§1) Part A. Compound Preparation\n• 1. Prepare 10 mM stock of compounds from solid in 100% DMSO. • 2. Set up an 11-point serial dilution (1:3 dilution, top concentration 10 mM) in 100% DMSO for each test compound in a 384 well plate leaving columns 6 and 18 for DMSO controls. • 3. Dispense 100 nL of compound from the dilution plate into reaction plates (Grenier Bio-One, 384-well, Cat#784075). Part B. Reagent Preparation Prepare the following solutions: • 1. 50 mM Tris-HCl, pH 8: Per 1 L of base buffer, combine 1 M Tris-HCl, pH 8 (50 mL) and distilled water (950 mL). • 2. 1× Assay Buffer: Per 10 mL of 1× Assay Buffer, combine 50 mM Tris-HCl, pH 8 (9958 uL), 1 M MgCl2 (20 uL), 2 M DTT (20 uL), and 10% Tween-20 (2 uL) to provide a final concentration of 50 mM Tris-HCl, pH 8, 2 mM MgCl2, 4 mM DTT, 0.002% Tween-20. • 3. 2× Enzyme Solution: Per 10 mL of 2× Enzyme Solution, combine 1× Assay Buffer and PRC2 complex to provide a final enzyme concentration of 10 nM. • 4. SPA Bead Suspension: Per 1 mL of SPA Bead Suspension, combine PS-PEI coated LEADSeeker beads (40 mg) and H2O (1 mL) to provide a final concentration of 40 mg/mL. • 5. […] Read plates • 1. Read the assay plates on the Viewlux Plate Reader utilizing the 613 nm emission filter with a 300 s read time. […]\n(§2) Percent inhibition was calculated relative to the DMSO control for each compound concentration and the resulting values were fit using standard IC50 fitting parameters within the ABASE data fitting software package."}, "[2]": {"molecular_target": "T1, EZH2 within the PRC2 complex", "assay": "EZH2 methyltransferase SPA, biotinylated histone H3K27 peptide substrate (Assay Protocol 2)", "format": "biochemical", "settings": "3H-SAM", "method": "Compounds contained herein were evaluated for their ability to inhibit the methyltransferase activity of EZH2 within the PRC2 complex. Human PRC2 complex was prepared by co-expressing each of the 5 member proteins (FLAG-EZH2, EED, SUZ12, RbAp48, AEBP2) in Sf9 cells followed by co-purification. Enzyme activity was measured in a scintillation proximity assay (SPA) where a tritiated methyl group is transferred from 3H-SAM to a lysine residue on a biotinylated, unmethylated peptide substrate derived from histone H3. The peptides were captured on streptavidin-coated SPA beads and the resulting signal was read on a ViewLux plate reader.\nas §1\n• 4. Prepare 10 mM stock of compounds from solid in 100% DMSO. • 5. Set up an 11-point serial dilution (1:4 dilution, top concentration 10 mM) in 100% DMSO for each test compound in a 384 well plate leaving columns 6 and 18 for DMSO controls. • 6. Dispense 10 nL of compound from the dilution plate into reaction plates (Corning, 384-well polystyrene NBS, Cat#3673). Part B. Reagent Preparation Prepare the following solutions: • 7. 1× Base Buffer, 50 mM Tris-HCl, pH 8, 2 mM MgCl2: Per 1 L of base buffer, combine 1 M Tris-HCl, pH 8 (50 mL), 1 M MgCl2 (2 mL), and distilled water (948 mL). • 8. 1× Assay Buffer: Per 10 mL of 1× Assay Buffer, combine 1× Base Buffer (9.96 mL), 1 M DTT (40 uL), and 10% Tween-20 (1 uL) to provide a final concentration of 50 mM Tris-HCl, pH 8, 2 mM MgCl2, 4 mM DTT, 0.001% Tween-20. • 9. 2× Enzyme Solution: Per 10 mL of 2× Enzyme Solution, combine 1× Assay Buffer (9.99 mL) and 3.24 uM EZH2 5 member complex (6.17 uL) to provide a final enzyme concentration of 1 nM.\n10. […] Read plates • 2. Read the assay plates on the Viewlux Plate Reader utilizing the 613 nm emission filter or clear filter (300 s exposure). […]\nas §2"}}}
{"smiles": "CCN(c1scc(C(=O)NCc2c(C)[nH]c(C)cc2=O)c1C)[C@H]1CC[C@H](N(C)C)CC1", "note": "[Example 2, N-((2,6-dimethyl-4-oxo-1,4-dihydropyridin-3-yl)methyl)-5-(((trans)-4-(dimethylamino)cyclohexyl)(ethyl)amino)-4-methylthiophene-3-carboxamide]", "values": [{"measurement": "IC50", "setting": "[1]", "result": 32, "unit": "nM"}, {"measurement": "IC50", "setting": "[2]", "result": 100, "unit": "nM"}]}
{"smiles": "CCN(c1scc(C(=O)NCc2c(C)[nH]c(C)cc2=O)c1C)C1CCOCC1", "note": "[Example 1, N-((2,6-dimethyl-4-oxo-1,4-dihydropyridin-3-yl)methyl)-5-(ethyl(tetrahydro-2H-pyran-4-yl)amino)-4-methylthiophene-3-carboxamide]", "values": [{"measurement": "IC50", "setting": "[1]", "result": 316, "unit": "nM"}]}
{"smiles": "CCN(c1scc(C(=O)NCc2c(C)[nH]c(C)c(N)c2=O)c1C)[C@H]1CC[C@H](N(C)C)CC1", "note": "[Example 3, N-((5-amino-2,6-dimethyl-4-oxo-1,4-dihydropyridin-3-yl)methyl)-5-(((trans)-4-(dimethylamino)cyclohexyl)(ethyl)amino)-4-methylthiophene-3-carboxamide]", "values": [{"measurement": "IC50", "setting": "[1]", "result": 32, "unit": "nM"}, {"measurement": "IC50", "setting": "[2]", "result": 16, "unit": "nM"}]}
{"smiles": "CCN(c1sc(Br)c(C(=O)NCc2c(C)[nH]c(C)cc2=O)c1C)[C@H]1CC[C@H](N(C)C)CC1", "note": "[Example 4, 2-Bromo-N-((2,6-dimethyl-4-oxo-1,4-dihydropyridin-3-yl)methyl)-5-(((trans)-4-(dimethylamino)cyclohexyl)(ethyl)amino)-4-methylthiophene-3-carboxamide]", "values": [{"measurement": "IC50", "setting": "[2]", "result": 160, "unit": "nM"}]}
